In PubChem BioAssay (NCI) one finds GI50 and TGI data, which are given here for eight compounds.

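All cell lines were grown in 96-well plates and treated with compound for 48 hours. GI50: concentration for 50% inhibition of growth. TGI is the concentration that stops growth completely.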

Some test systems named below: A549 NSCLC; MOLT-4 leukemia; NCI/ADR-RES ovarian; SW-620 colon; PC-3 prostate; SN12C renal; NCI-H460 lung; SF-295 CNS; MALME-3M melanoma; HS 578T breast.
Holding throughout (experiment): DTP human tumour cell line panel, 48 h

Regarding `COc1ccc(-n2cc(-c3cc(OC)c(OC)c(OC)c3)[nH]c2=S)cc1Cl`, the GI50 with A549 NSCLC is 65.5 µM; in the assay with MOLT-4 leukemia, over 100 µM; with NCI/ADR-RES ovarian, 27.5 µM; in the assay on SW-620 colon, over 100 µM; in the assay on PC-3 prostate, 54.6 µM; in the assay on SN12C renal, 46.7 µM. The GI50 is 18.9 µM with NCI-H460 lung, 43 µM with SF-295 CNS, 40.1 µM with MALME-3M melanoma and 17.5 µM with HS 578T breast. Further, the concentration for total growth inhibition (TGI) in the assay with A549 NSCLC, with MOLT-4 leukemia, in the assay with NCI/ADR-RES ovarian, in the assay with SW-620 colon, in the assay on PC-3 prostate and in the assay with SN12C renal was over 100 µM each time. The total growth inhibition concentration (TGI) in the assay on NCI-H460 lung is over 100 µM; in the assay with SF-295 CNS it was over 100 µM; with MALME-3M melanoma, over 100 µM; in the assay on HS 578T breast it was 60 µM.

For `Cc1cn([C@H]2C[C@H](O)[C@@H](CO)O2)c(=O)nc1N`, the total growth inhibition concentration (TGI) in the assay on A549 NSCLC, in the assay on MOLT-4 leukemia, in the assay with NCI/ADR-RES ovarian, with SW-620 colon, in the assay on PC-3 prostate and in the assay on SN12C renal was over 100 µM throughout. The TGI in the assay on NCI-H460 lung, with SF-295 CNS, with MALME-3M melanoma and in the assay on HS 578T breast was over 100 µM throughout.

On to `CN1CCN(c2ccc3nc(-c4[nH]ncc4Nc4ncnc5c4OCCCN5)[nH]c3c2)CC1`, for which the GI50 is under 0.01 µM with A549 NSCLC; under 0.01 µM in the assay with MOLT-4 leukemia; 0.28 µM in the assay on NCI/ADR-RES ovarian; under 0.01 µM with SW-620 colon; under 0.01 µM in the assay with PC-3 prostate; under 0.01 µM in the assay with SN12C renal. The GI50 in the assay with NCI-H460 lung was 0.0208 µM; in the assay on SF-295 CNS, 0.0162 µM; in the assay on MALME-3M melanoma, 0.0185 µM; with HS 578T breast, under 0.01 µM. The concentration for total growth inhibition (TGI) in the assay on A549 NSCLC was 0.116 µM; in the assay with MOLT-4 leukemia, 0.315 µM; with NCI/ADR-RES ovarian it was 2.89 µM; with SW-620 colon, 0.112 µM; in the assay with PC-3 prostate, 0.0671 µM; in the assay on SN12C renal, 0.12 µM. In addition, the total growth inhibition concentration (TGI) in the assay with NCI-H460 lung was 0.0804 µM; with SF-295 CNS, 0.0769 µM; with MALME-3M melanoma, 0.0633 µM; with HS 578T breast it was 0.0302 µM.

Regarding `C=C(C)[C@@H]1CC[C@]2(C(=O)O)CC[C@]3(C)[C@H](CC[C@@H]4[C@@]5(C)C/C(=C/c6cccc(I)c6)C(=O)C(C)(C)[C@@H]5CC[C@]43C)[C@@H]12`, the GI50 in the assay on A549 NSCLC was 1.49 µM; in the assay with MOLT-4 leukemia, 2.85 µM; with NCI/ADR-RES ovarian, 3.22 µM; in the assay on SW-620 colon it was 1.95 µM; in the assay with PC-3 prostate, 2.2 µM; in the assay with SN12C renal, 2.93 µM. Further, the GI50 was 1.9 µM with NCI-H460 lung, 2.91 µM in the assay on SF-295 CNS, 2.46 µM with MALME-3M melanoma and 2.51 µM with HS 578T breast. In addition, the TGI in the assay on A549 NSCLC worked out at 6.31 µM; in the assay on MOLT-4 leukemia it was 9.45 µM; in the assay on NCI/ADR-RES ovarian, 14.2 µM; in the assay on SW-620 colon it was 4.58 µM; in the assay on PC-3 prostate it was 10.6 µM; in the assay on SN12C renal, 11.7 µM. Moreover, the TGI in the assay with NCI-H460 lung came to 4.27 µM; in the assay on SF-295 CNS, 12.6 µM; in the assay on MALME-3M melanoma, 6.65 µM; in the assay on HS 578T breast, 8.75 µM.

Regarding `CCSc1ccc([C@@H]2[C@@H](N)C(=O)N2c2cc(OC)c(OC)c(OC)c2)cc1`, the GI50 with A549 NSCLC was 0.108 µM; with MOLT-4 leukemia, 0.0528 µM; in the assay with NCI/ADR-RES ovarian, 0.13 µM; with SW-620 colon, 0.0476 µM; in the assay on PC-3 prostate it was 0.0773 µM; in the assay with SN12C renal it was 0.524 µM. Also, the GI50 with NCI-H460 lung was 0.0488 µM; with SF-295 CNS it was 0.0515 µM; with MALME-3M melanoma it was over 100 µM; with HS 578T breast, 0.18 µM. The TGI in the assay with A549 NSCLC, with MOLT-4 leukemia, in the assay on NCI/ADR-RES ovarian, in the assay on SW-620 colon, in the assay on PC-3 prostate and in the assay with SN12C renal was over 100 µM in each case. Also, the total growth inhibition concentration (TGI) in the assay on NCI-H460 lung, in the assay with SF-295 CNS, in the assay on MALME-3M melanoma and in the assay with HS 578T breast was over 100 µM each time.

In the case of `CCOC(=O)c1ccc(N(C=O)CCC(=O)CCl)cc1`, the GI50 in the assay on A549 NSCLC is 1.37 µM; with MOLT-4 leukemia, 0.0433 µM; in the assay with NCI/ADR-RES ovarian it was 0.393 µM; in the assay on SW-620 colon, 0.0398 µM; in the assay on PC-3 prostate it was 0.401 µM; with SN12C renal, 0.217 µM. The 50% growth inhibitory concentration (GI50) was 0.355 µM in the assay on NCI-H460 lung, 1.2 µM in the assay with SF-295 CNS, 1.49 µM in the assay on MALME-3M melanoma and 0.311 µM in the assay on HS 578T breast. The TGI came out at 12.7 µM in the assay with A549 NSCLC; 3.88 µM in the assay with MOLT-4 leukemia; 19.4 µM with NCI/ADR-RES ovarian; 1.53 µM in the assay with SW-620 colon; 14.8 µM in the assay with PC-3 prostate; 4.27 µM in the assay on SN12C renal. The TGI in the assay with NCI-H460 lung was 11.1 µM; in the assay with SF-295 CNS it was 13 µM; in the assay on MALME-3M melanoma, 3.48 µM; with HS 578T breast, 2.89 µM.

In the case of `CCCCCCCCCCCCCCCC(=O)OCC1OC(OC)C(NC(=O)N(CCCl)N=O)C(O)C1O` (stereo not drawn), the concentration for total growth inhibition (TGI) in the assay on A549 NSCLC is 35.2 µM; in the assay on MOLT-4 leukemia it was 29.2 µM; in the assay with NCI/ADR-RES ovarian, 58.9 µM; in the assay with SW-620 colon it was 28.5 µM; in the assay on PC-3 prostate, 51.7 µM; in the assay with SN12C renal, 39.3 µM. Moreover, the TGI with NCI-H460 lung is 23.1 µM; in the assay with SF-295 CNS, 24.7 µM; in the assay on MALME-3M melanoma it was 59 µM; in the assay on HS 578T breast, 63.9 µM.

As for `O=C(NO)c1ccc(Cn2c(=O)n(-c3ccccc3)c(=O)c3ccccc32)cc1`, the GI50 was 2.33 µM with A549 NSCLC; 0.848 µM in the assay on MOLT-4 leukemia; 2.67 µM in the assay with NCI/ADR-RES ovarian; 0.667 µM in the assay with SW-620 colon; 1.72 µM in the assay on PC-3 prostate; 1.44 µM with NCI-H460 lung. In addition, the results for the GI50 in the assay on SF-295 CNS, in the assay with MALME-3M melanoma and with HS 578T breast were 1.38 µM, 0.473 µM and 1.6 µM, respectively. In addition, the TGI was 13.6 µM with A549 NSCLC; over 100 µM in the assay on MOLT-4 leukemia; 39.5 µM in the assay with NCI/ADR-RES ovarian; 3.03 µM in the assay with SW-620 colon; 4.53 µM with PC-3 prostate; 9.19 µM in the assay with NCI-H460 lung. Besides, the TGI in the assay on SF-295 CNS stood at 2.98 µM; with MALME-3M melanoma, 2.34 µM; with HS 578T breast it was 9.43 µM.

A word on the GI50: it is the concentration giving 50% growth inhibition. As usually defined, the TGI is the concentration giving total growth inhibition. Read a low TGI as more potent growth arrest.
